These results are taken from patent US9809640B2, “ApoE peptide dimers and uses thereof” (priority 2010, dated 2017).

Where two headings read alike, the source gives them in different places. Non-standard residues stand in square brackets, D forms with d. Residues, ends and D or L forms follow the SMILES beside them. No end group written: not given here. Aib = CC(C)(N)C(=O)O Some results are limits rather than exact numbers.

The subject of one series is B-CLL cells. Description: Cytotoxicity on patient-derived B-CLL cells (MTS assay). The note with it: for Fold Change: CLL EC50 relative to COG056 (rev133) = 1.0. An excerpt: FIG. 5A: Dose response curves for COG449 cytotoxicity on CLL cells from 4 leukemia patients. Human CLL cells were isolated from blood samples and assayed for COG449 cytotoxicity. […] FIG. 5B: Dose response curves for COG445 on CLL cells from 7 patients or normal B-cells from 5 patients. Human CLL cells and PBMC were isolated and assayed for cytotoxicity of COG445.
Blood from CLL patients was collected and CD5+/CD19+ CLL cells were isolated using the RosetteSep™ Human B-Cell Enrichment Cocktail, according to the manufacturer's instructions, and treated with COG compounds. Compounds were applied to B-CLL cells (2.5×10^5 cells/well in a 96 well plate), after which the cells were treated for 72 hours.
Normal B-cells from volunteers and B-CLL cells from patients are isolated using the RosetteSep™ Human B Cell Enrichment Cocktail according to the manufacturer's instructions. This method depletes whole blood of T cells, monocytes, and NK cells using a proprietary antibody cocktail that cross-links unwanted cells in human whole blood to multiple red blood cells (RBCs) forming immunorosettes. This increases the density of the unwanted (rosetted) cells, such that they pellet along with the free RBCs when centrifuged over a buoyant density medium such as Ficoll-Paque®. This leaves the highly enriched B-cell or B-CLL cells at the interface between Ficoll and the plasma. The antibodies in the cocktail contain […] and anti-CD16 antibodies to remove T cells, monocytes, and NK cells, respectively. The purity of these B-cell and B-CLL preparations is then determined by flow cytometry.
For cytotoxicity assays, 3×10^6 CLL cells/well are cultured in 24 well tissue culture plates in 1.5 mL of Hybridoma SFM™ (Gibco, Long Island, N.Y.) as described by Levesque et al. (2001, 2003). All cultures are incubated at 37° C., 5% CO2 in air.
Background: Tetrazolium dyes change colour on reduction, which living cells bring about.

For the next series, the system named is normal B-cells. The experiment in a line: Cytotoxicity on normal B-cells from volunteers. It is filed as cell-based, human. The settings on record: normal B-cells from volunteers.
Series [1] can be described thus: Mouse toxicity, maximum tolerated dose by intravenous injection. The note with it: in vivo, maximum dose by intravenous injection without deaths after 24 hrs. The source says:
(§1) We also evaluated the various peptides for efficacy in suppressing nitric oxide production induced by LPS stimulation of BV2 microglia cells as a measure of anti-inflammatory activity as well as the maximum dose tolerated in mice (Table I and FIG. 6A). For the LPS assay, EC50 is the concentration of compound that caused a 50% suppression of nitric oxide release from BV2 cells following LPS stimulation. For mouse toxicity, MTD is the maximum dose of the compound that can be given by intravenous injection without causing deaths after 24 hrs. […] Coupling the ApoE domain to a protein transduction domain further enhanced the potency of the dimers.

The subject of the next series is BV2 microglia cells. The experiment in a line: LPS-induced nitric oxide production in BV2 microglia cells. It is filed as cell-based. The settings on record: 50% suppression of nitric oxide release from BV2 cells following LPS stimulation. On the procedure: FIG. 1. COG 112 inhibits LPS-induced production of inflammatory cytokines in BV2 microglia cells. Inhibition curves for COG112 in the production of NO (green squares), TNFα (red diamonds), and IL-6 (blue triangles) by BV2 microglia. Compounds were added to the final concentrations indicated on the graph along with 100 ng/mL of LPS. After 24 hours the media was removed and assayed by two-site ELISA (BioSource) and quantitated relative to a standard curve on the same plate.
FIG. 3. NO Inhibition curve for COG449. BV2 microglia were treated with COG449 at the final concentrations indicated on the graph, along with 100 ng/mL of LPS. After 24 hours the media was removed and assayed by two-site ELISA (BioSource) and quantitated relative to a standard curve on the same plate.
as §1
Low passage BV2 microglial cell cultures are maintained in 10% HI (Heat Inactivated) FBS DMEM media (supplemented with MEM NEAA (Non-Essential Amino Acids), sodium pyruvate and Pen-Strep) and continuously cultured until needed. To determine the IC50 values for NO production, peptides are added to BV2 cultures in 1% HI FBS DMEM media (supplemented with MEM NEAA and sodium pyruvate) at a range of final assay concentrations from 1.0 μM in 2 fold dilutions to 7.8 nM followed immediately by addition of LPS (100 ng/mL final concentration) as previously described (Laskowitz et al. (2001) Exp Neurol, Vol. 167(1): 74-85). After incubating for 18±1 hours, conditioned media is removed for analysis of nitrite (the stable oxidation product of released nitric oxide) by the Griess colorimetric assay (Promega). Remaining cells are assayed for viability in an MTT assay (Promega) and the nitrite assay values are normalized for each concentration using the percent viability of cells in the MTT assay. […] Typically, the absence of LPS exposure to BV2 cells results in levels below the limit of detection in our assays. Similarly, addition of any of the peptides up to 25 μM without LPS results in undetectable NO levels.

In another series the test system is U87MG glioblastoma cells. The series is classed as cell-based. The settings on record: MTT. On the procedure:
FIG. 14A: Dose response curve of COG445 on proliferation of U87 (open circles) and MDA-MB-231 (filled circles) cells as measured by MTT reduction. FIG. 14B: Dose response curve of COG445 on proliferation of MDA-MB-231 cells as measured by cell count.
To determine whether ApoE peptide dimers were cytotoxic to other types of cancer, we evaluated the effect of three different ApoE BMOE-linked peptide dimers (COG449, COG492, COG493; see Table I) on the growth characteristics of U87MG glioblastoma cells. Various concentrations of COG449, COG492, COG493 or Sorafenib were used to treat U87MG glioblastoma cells and viable cells were quanititated using MTT. Sorafenib, which has previously been reported to be cytotoxic to glioblastoma cells (Yang et al. (2010) Mol Cancer Ther., Vol. 9(4):953-962), was used as a positive control.
Because COG445 inhibited Akt activation and downstream signaling, we examined the effects of COG445 on cellular proliferation. Adherent MB231 and U87 cells were grown for ˜24 hours in the presence of COG445 and cellular proliferation was measured by MTT reduction. […] Furthermore, COG445 inhibited MB231 cellular proliferation as determined by cell count (FIG. 14B). Approximately 6×10^4 cells were plated in growth media (RPMI+10% FBS) for 24-hours with increasing concentrations of COG445. […] However at concentrations ≧1 μM COG445, there appears to be a loss of cells. This is partially explained by decreased proliferation, although it is possible that the rate of cellular degradation was increased in the presence of COG445.

The mark [2] stands for this setting: read-out: CLL EC50, B-CLL cells from patients, 72 hours, MTS assay.

Description for normal B-cells: Normal B-cells from volunteers and B-CLL cells from patients are isolated using the RosetteSep™ Human B Cell Enrichment Cocktail according to the manufacturer's instructions. This method depletes whole blood of T cells, monocytes, and NK cells using a proprietary antibody cocktail that cross-links unwanted cells in human whole blood to multiple red blood cells (RBCs) forming immunorosettes. This increases the density of the unwanted (rosetted) cells, such that they pellet along with the free RBCs when centrifuged over a buoyant density medium such as Ficoll-Paque®. This leaves the highly enriched B-cell or B-CLL cells at the interface between Ficoll and the plasma. The antibodies in the cocktail contain anti-CD14, anti-CD2 and anti-CD16 antibodies to remove T cells, monocytes, and NK cells, respectively. The purity of these B-cell and B-CLL preparations is then determined by flow cytometry. Preparations typically average less than 2% CD3+ T-cells and less than 0.5% CD14+ monocytes. In the case of B-CLL cell isolation, we routinely obtain preparations that contain less than 1.5% normal CD19+/CD5− B-cells using this method.

The term MTD denotes the largest dose that counted as tolerated. Lower therefore signals a narrow tolerated range. For the compound `CC(=O)N[C@@H](CC(C)C)C(=O)N[C@@H](CCCNC(=N)N)C(=O)N[C@H](C(=O)N[C@@H](CCCNC(=N)N)C(=O)N[C@@H](CC(C)C)C(=O)N[C@@H](C)C(=O)N[C@@H](CO)C(=O)N[C@@H](Cc1c[nH]cn1)C(=O)N[C@@H](CC(C)C)C(=O)N[C@@H](CCCNC(=N)N)C(=O)N[C@@H](CCCCN)C(=O)N[C@@H](CC(C)C)C(=O)N[C@@H](CCCNC(=N)N)C(=O)N[C@@H](CCCCN)C(=O)N[C@@H](CCCNC(=N)N)C(=O)N[C@@H](CC(C)C)C(=O)N[C@@H](CC(C)C)C(N)=O)C(C)C` [COG133, LRVRLASHLRKLRKRLL (SEQ ID NO: 3)], the EC50 was 4.4 ± 1.5 µM with B-CLL cells (read-out: ED50 cytotoxic potency (text, Table I), CLL cells) and above 20 µM in the series with normal B-cells. Moreover, in series [1], the MTD at 24 h is 16 mg/kg.

In the case of “LLRKRLKRLHSALRVRL [COG056, LLRKRLKRLHSALRVRL (SEQ ID NO: 2), reference compound]”, the EC50 was above 20 µM in the series with BV2 microglia cells and 12.9 µM in the series on B-CLL cells (setting [2]). Also, the “Fold Change” value with B-CLL cells was found to be 1.0.

In the case of `CC[C@H](C)[C@H](NC(=O)[C@H](CCCCN)NC(=O)[C@@H](NC(=O)[C@H](CCC(N)=O)NC(=O)[C@@H](N)CCCNC(=N)N)[C@@H](C)CC)C(=O)N[C@@H](Cc1c[nH]c2ccccc12)C(=O)N[C@@H](Cc1ccccc1)C(=O)N[C@@H](CCC(N)=O)C(=O)N[C@@H](CC(N)=O)C(=O)N[C@@H](CCCNC(=N)N)C(=O)N[C@@H](CCCNC(=N)N)C(=O)N[C@@H](CCSC)C(=O)N[C@@H](CCCCN)C(=O)N[C@@H](Cc1c[nH]c2ccccc12)C(=O)N[C@@H](CCCCN)C(=O)N[C@@H](CCCCN)C(=O)N[C@@H](CS)C(=O)N[C@@H](C)C(=O)N[C@@H](CO)C(=O)NC(C)(C)C(=O)N[C@@H](CC(C)C)C(=O)N[C@@H](CCCNC(=N)N)C(=O)N[C@@H](CCCCN)C(=O)N[C@@H](CC(C)C)C(=O)NC(C)(C)C(=O)N[C@@H](CCCCN)C(=O)N[C@@H](CCCNC(=N)N)C(=O)N[C@@H](CC(C)C)C(=O)N[C@@H](CC(C)C)C(=O)O` [COG120, RQIKIWFQNRRMKWKK-C-AS(Aib)LRKL(Aib)KRLL (SEQ ID NO: 7)] (H-RQIKIWFQNRRMKWKKCAS[Aib]LRKL[Aib]KRLL-OH; N-terminus and C-terminus assumed), the EC50 in the series on BV2 microglia cells is below 1 µM; in the series on B-CLL cells (setting [2]) it was 1 µM. Moreover, the “Fold Change” value in the series with B-CLL cells is recorded as 12.6.

Turning to `CC(C)C[C@H](NC(=O)[C@H](CC(C)C)NC(=O)[C@H](CCCNC(=N)N)NC(=O)[C@H](CCCCN)NC(=O)C(C)(C)NC(=O)[C@H](CC(C)C)NC(=O)[C@H](CCCCN)NC(=O)[C@H](CCCNC(=N)N)NC(=O)[C@H](CC(C)C)NC(=O)C(C)(C)NC(=O)[C@H](CO)NC(=O)[C@H](C)NC(=O)[C@H](CS)NC(=O)[C@H](CCCNC(=N)N)NC(=O)[C@H](CCCNC(=N)N)NC(=O)[C@H](CCCNC(=N)N)NC(=O)[C@H](CCC(N)=O)NC(=O)[C@H](CCCNC(=N)N)NC(=O)[C@H](CCCNC(=N)N)NC(=O)[C@H](CCCCN)NC(=O)[C@H](CCCCN)NC(=O)[C@H](CCCNC(=N)N)NC(=O)CNC(=O)[C@@H](N)Cc1ccc(O)cc1)C(=O)O` [COG226, YGRKKRRQRRR-C-AS(Aib)LRKL(Aib)KRLL (SEQ ID NO: 6)] (H-YGRKKRRQRRRCAS[Aib]LRKL[Aib]KRLL-OH), the EC50 in the series with BV2 microglia cells was below 1 µM; with B-CLL cells (setting [2]), 1.4 µM. The “Fold Change” value with B-CLL cells is on record as 9.2.

Compound `CC(=O)N[C@@H](CSC1CC(=O)N(CCN2C(=O)CC(SC[C@H](NC(C)=O)C(=O)N[C@@H](CC(C)C)C(=O)N[C@@H](CCCNC(=N)N)C(=O)N[C@H](C(=O)N[C@@H](CCCNC(=N)N)C(=O)N[C@@H](CC(C)C)C(=O)N[C@@H](C)C(=O)N[C@@H](CO)C(=O)N[C@@H](Cc3c[nH]cn3)C(=O)N[C@@H](CC(C)C)C(=O)N[C@@H](CCCNC(=N)N)C(=O)N[C@@H](CCCCN)C(=O)N[C@@H](CC(C)C)C(=O)N[C@@H](CCCNC(=N)N)C(=O)N[C@@H](CCCCN)C(=O)N[C@@H](CCCNC(=N)N)C(=O)N[C@@H](CC(C)C)C(=O)N[C@@H](CC(C)C)C(N)=O)C(C)C)C2=O)C1=O)C(=O)N[C@@H](CC(C)C)C(=O)N[C@@H](CCCNC(=N)N)C(=O)N[C@H](C(=O)N[C@@H](CCCNC(=N)N)C(=O)N[C@@H](CC(C)C)C(=O)N[C@@H](C)C(=O)N[C@@H](CO)C(=O)N[C@@H](Cc1c[nH]cn1)C(=O)N[C@@H](CC(C)C)C(=O)N[C@@H](CCCNC(=N)N)C(=O)N[C@@H](CCCCN)C(=O)N[C@@H](CC(C)C)C(=O)N[C@@H](CCCNC(=N)N)C(=O)N[C@@H](CCCCN)C(=O)N[C@@H](CCCNC(=N)N)C(=O)N[C@@H](CC(C)C)C(=O)N[C@@H](CC(C)C)C(N)=O)C(C)C` (some centres unmarked) [COG492, C-LRVRLASHLRKLRKRLL (SEQ ID NO: 15) <BMOE> C-LRVRLASHLRKLRKRLL (SEQ ID NO: 15)] displayed a maximum tolerated dose (MTD) at 24 h in series [1] of 25 mg/kg. In the series on U87MG glioblastoma cells, the “cytotoxicity to U87MG cells” value is “cytotoxic”.
